# Molecular target: T1, human mPGES-1 (Homo sapiens, UniProt O14684)
# T1 sequence (O14684 1-152): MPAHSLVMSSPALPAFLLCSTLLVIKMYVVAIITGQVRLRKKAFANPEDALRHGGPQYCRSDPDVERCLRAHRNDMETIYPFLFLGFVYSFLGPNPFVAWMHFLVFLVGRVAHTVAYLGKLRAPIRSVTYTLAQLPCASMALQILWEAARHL
# Experiment: Microsomal prostaglandin E synthase biochemical assay
# Details: microsome preparation containing human mPGES-1; PGH2 10.8 μM, GSH 2.5 mM, pH 6.8; PGE2 by HTRF; average of at least n=2
# How it was run: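 Human mPGES-1 microsomes at 2 μg/mL were pre-incubated 15 min with compound (60 μM to 0.002 μM) in 50 mM potassium phosphate pH 6.8 with 2.5 mM GSH. The reaction was started with 10.8 μM PGH2 and stopped after 1 minute with acidic ferric chloride/citrate. PGE2 was quantified by HTRF; IC50 is the mean of at least 2 runs.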
row,Structure (SMILES),IC50
1,"COc1ncc(-c2cccc(S(=O)(=O)Nc3ccccc3S(N)(=O)=O)c2)c(OC)n1 [Example 118, 3-(2,4-Dimethoxypyrimidin-5-yl)-N-(2-sulfamoylphenyl)benzenesulfonamide]",4.7 µM
2,"NS(=O)(=O)c1ccccc1NS(=O)(=O)c1cccc(-c2ccoc2)c1 [Example 119, 2-[[3-(3-Furyl)phenyl]sulfonylamino]benzenesulfonamide]",4.5 µM
3,"NS(=O)(=O)c1ccccc1NS(=O)(=O)c1cccc(-c2ccc3[nH]ccc3c2)c1 [Example 120, 2-[[3-(1H-Indol-5-yl)phenyl]sulfonylamino]benzenesulfonamide]",3.3 µM
4,"NS(=O)(=O)c1ccccc1NS(=O)(=O)c1cccc(-c2cccc(OC(F)(F)F)c2)c1 [Example 121, 2-[[3-[3-(Trifluoromethoxy)phenyl]phenyl]sulfonylamino]benzenesulfonamide]",0.22 µM
5,"NS(=O)(=O)c1ccccc1NS(=O)(=O)c1ccc2c(c1)CCC2 [Example 122, N-(2-Sulfamoylphenyl)-2,3-dihydro-1H-indene-5-sulfonamide]",6.7 µM
6,"CN1CCOc2cc(S(=O)(=O)Nc3ccccc3S(N)(=O)=O)ccc21 [Example 123, 7-Methyl-N-(2-sulfamoylphenyl)-10-oxa-7-azabicyclo[4.4.0]deca-1,3,5-triene-3-sulfonamide]",9.3 µM
7,"NS(=O)(=O)c1ccccc1NS(=O)(=O)c1ccccc1-c1ccc(Cl)c(Cl)c1 [Example 124, 2-(3,4-Dichlorophenyl)-N-(2-sulfamoylphenyl)benzenesulfonamide]",1.3 µM
8,"NS(=O)(=O)c1ccccc1NS(=O)(=O)c1ccc(Oc2ncc(C(F)(F)F)cc2Cl)cc1 [Example 125, 2-[[4-[3-Chloro-5-(trifluoromethyl)pyridin-2-yl]oxyphenyl]sulfonylamino]benzenesulfonamide]",7.2 µM
9,NS(=O)(=O)c1ccccc1NS(=O)(=O)c1ccc2c(c1)CCCC2 [Example 126],1.2 µM
10,"NS(=O)(=O)c1ccccc1NS(=O)(=O)c1ccc(OCc2ccccc2)cc1 [Example 127, 4-Phenylmethoxy-N-(2-sulfamoylphenyl)benzenesulfonamide]",5.1 µM
11,"NS(=O)(=O)c1ccccc1NS(=O)(=O)c1ccc(C2CCCCC2)cc1 [Example 128, 2-[(4-Cyclohexylphenyl)sulfonylamino]benzenesulfonamide]",1.7 µM
12,"NS(=O)(=O)c1ccccc1NS(=O)(=O)c1cccc(-c2ccccc2)c1 [Example 129, 3-Phenyl-N-(2-sulfamoylphenyl)benzenesulfonamide]",2.5 µM
13,"Cn1nc(-c2ccc(S(=O)(=O)Nc3ccccc3S(N)(=O)=O)s2)cc1C(F)(F)F [Example 130, 5-(1-Methyl-5-trifluoromethyl-1H-pyrazol-3-yl)-thiophene-2-sulfonic acid (2-sulfamoyl-phenyl)-amide]",5.2 µM
14,"NS(=O)(=O)c1ccccc1NS(=O)(=O)c1ccc(C(F)(F)F)cc1 [Example 131, N-(2-Sulfamoylphenyl)-4-(trifluoromethyl)benzenesulfonamide]",6.6 µM
15,"NS(=O)(=O)c1ccccc1NS(=O)(=O)c1cccc(-c2cc(Cl)ccc2Cl)c1 [Example 132, 2-[[3-(2,5-Dichlorophenyl)phenyl]sulfonylamino]benzenesulfonamide]",4.5 µM
16,"NS(=O)(=O)c1ccccc1NS(=O)(=O)c1cccc(-c2cccc3c2oc2ccccc23)c1 [Example 133, 3-Dibenzofuran-4-yl-N-(2-sulfamoylphenyl)benzenesulfonamide]",2.2 µM
17,"NS(=O)(=O)c1ccccc1NS(=O)(=O)c1cccc(-c2ccc(C(F)(F)F)cc2)c1 [Example 134, 2-[[3-[4-(Trifluoromethyl)phenyl]phenyl]sulfonylamino]benzenesulfonamide]",3.7 µM
18,"COc1cccc(-c2cccc(S(=O)(=O)Nc3ccccc3S(N)(=O)=O)c2)c1 [Example 135, 3-(3-Methoxyphenyl)-N-(2-sulfamoylphenyl)benzenesulfonamide]",8.3 µM
19,"NS(=O)(=O)c1ccccc1NS(=O)(=O)c1cccc(-c2cc3ccccc3o2)c1 [Example 136, 3-Benzofuran-2-yl-N-(2-sulfamoylphenyl)benzenesulfonamide]",3.8 µM
20,"NS(=O)(=O)c1ccccc1NS(=O)(=O)c1cccc(-c2ccc3c(c2)CCO3)c1 [Example 137, 2-[[3-(2,3-Dihydrobenzofuran-5-yl)phenyl]sulfonylamino]benzenesulfonamide]",2.1 µM
21,"COc1ccc(-c2cccc(S(=O)(=O)Nc3ccccc3S(N)(=O)=O)c2)cn1 [Example 138, 3-(6-Methoxypyridin-3-yl)-N-(2-sulfamoylphenyl)benzenesulfonamide]",0.57 µM
22,"NS(=O)(=O)c1ccccc1NS(=O)(=O)c1cccc(-c2ccc(Cl)cc2Cl)c1 [Example 139, 2-[[3-(2,4-Dichlorophenyl)phenyl]sulfonylamino]benzenesulfonamide]",1.8 µM
23,"Cn1c(-c2cccc(S(=O)(=O)Nc3ccccc3S(N)(=O)=O)c2)cc2ccccc21 [Example 140, 3-(1-Methylindol-2-yl)-N-(2-sulfamoylphenyl)benzenesulfonamide]",2.9 µM
24,"NS(=O)(=O)c1ccccc1NS(=O)(=O)c1cccc(-c2cccc(C(F)(F)F)c2)c1 [Example 141, 2-[[3-[3-(Trifluoromethyl)phenyl]phenyl]sulfonylamino]benzenesulfonamide]",3.1 µM
25,"NS(=O)(=O)c1ccccc1NS(=O)(=O)c1ccc(-c2cc3ccccc3o2)cc1 [Example 142, 4-Benzofuran-2-yl-N-(2-sulfamoylphenyl)benzenesulfonamide]",4.9 µM

# The next lines start with the values.
row,IC50,Structure (SMILES)
1,1.1 µM,"NS(=O)(=O)c1ccccc1NS(=O)(=O)c1cccc(-c2ccc(F)cc2F)c1 [Example 143, 2-[[3-(2,4-Difluorophenyl)phenyl]sulfonylamino]benzenesulfonamide]"
2,1.1 µM,"NS(=O)(=O)c1cc(Br)ccc1NS(=O)(=O)c1cccc(-c2ccc(Cl)c(Cl)c2)c1 [Example 144, 5-Bromo-2-[[3-(3,4-dichlorophenyl)phenyl]sulfonylamino]benzenesulfonamide]"
3,4.1 µM,"NS(=O)(=O)c1cc(-c2ccccc2)ccc1NS(=O)(=O)c1cccc(-c2ccc(Cl)c(Cl)c2)c1 [Example 145, 2-[[3-(3,4-Dichlorophenyl)phenyl]sulfonylamino]-5-phenyl-benzenesulfonamide]"
4,4.7 µM,"NS(=O)(=O)c1ccccc1NS(=O)(=O)c1cccc(F)c1F [Example 146, 2,3-Difluoro-N-(2-sulfamoylphenyl)benzenesulfonamide]"
5,3.9 µM,"NS(=O)(=O)c1cc(F)ccc1NS(=O)(=O)c1cccc(F)c1F [Example 147, 2,3-Difluoro-N-(4-fluoro-2-sulfamoyl-phenyl)benzenesulfonamide]"
6,0.38 µM,"NS(=O)(=O)c1ccccc1NS(=O)(=O)c1cccc(Cl)c1F [Example 148, 3-Chloro-2-fluoro-N-(2-sulfamoylphenyl)benzenesulfonamide]"
7,0.65 µM,"NS(=O)(=O)c1ccccc1NS(=O)(=O)c1cccc(Cl)c1Cl [Example 149, 2,3-Dichloro-N-(2-sulfamoylphenyl)benzenesulfonamide]"
8,4.2 µM,"Cc1ccc(NS(=O)(=O)c2cccc(-c3ccc(Cl)c(Cl)c3)c2)c(S(N)(=O)=O)c1 [Example 150, 2-[[3-(3,4-Dichlorophenyl)phenyl]sulfonylamino]-5-methyl-benzenesulfonamide]"
9,3.7 µM,"NC(=O)c1ccc(NS(=O)(=O)c2cccc(-c3ccc(Cl)c(Cl)c3)c2)c(S(N)(=O)=O)c1 [Example 151, 4-[[3-(3,4-Dichlorophenyl)phenyl]sulfonylamino]-3-sulfamoyl-benzamide]"
10,3.9 µM,"Cc1ccc(NS(=O)(=O)c2cccc(-c3cccc(OC(F)(F)F)c3)c2)c(S(N)(=O)=O)c1 [Example 152, 5-Methyl-2-[[3-[3-(trifluoromethoxy)phenyl]phenyl]sulfonylamino]-benzenesulfonamide]"
11,3.2 µM,"NS(=O)(=O)c1cc(CO)ccc1NS(=O)(=O)c1cccc(Cl)c1Cl [Example 153, 2-(2,3-Dichloro-benzenesulfonylamino)-5-hydroxymethyl-benzenesulfonamide]"
12,9.3 µM,"Cc1ccc(NS(=O)(=O)c2cccc(Cl)c2Cl)c(S(N)(=O)=O)c1 [Example 154, 2-(2,3-Dichloro-benzenesulfonylamino)-5-methyl-benzenesulfonamide]"
13,9.8 µM,"NS(=O)(=O)c1cc(Oc2ccccc2)ccc1NS(=O)(=O)c1cccc(-c2ccc(Cl)c(Cl)c2)c1 [Example 155, 2-[[3-(3,4-Dichlorophenyl)phenyl]sulfonylamino]-5-phenoxy-benzenesulfonamide]"
14,5.4 µM,"NS(=O)(=O)c1cc(Oc2ccccc2)ccc1NS(=O)(=O)c1cccc(-c2cccc(OC(F)(F)F)c2)c1 [Example 156, 5-Phenoxy-2-[[3-[3-(trifluoromethoxy)phenyl]phenyl]sulfonylamino]-benzenesulfonamide]"
15,1.1 µM,"NS(=O)(=O)c1cc(O)ccc1NS(=O)(=O)c1cccc(Cl)c1Cl [Example 157, 2-(2,3-Dichloro-benzenesulfonylamino)-5-hydroxy-benzenesulfonamide]"
16,8.7 µM,"C[C@@](O)(C(=O)Nc1ccc(S(=O)(=O)Nc2ccccc2S(N)(=O)=O)cc1Cl)C(F)(F)F [Example 158, (2R)—N-[2-Chloro-4-[(2-sulfamoylphenyl)sulfamoyl]phenyl]-3,3,3-trifluoro-2-hydroxy-2-methyl-propanamide]"
17,3.5 µM,"NS(=O)(=O)c1ccccc1NS(=O)(=O)c1ccc(Cl)s1 [Example 159, 5-Chloro-N-(2-sulfamoylphenyl)thiophene-2-sulfonamide]"
18,1.2 µM,"NS(=O)(=O)c1ccccc1NS(=O)(=O)c1cc(Cl)c(Cl)s1 [Example 160, 4,5-Dichloro-N-(2-sulfamoylphenyl)thiophene-2-sulfonamide]"

# Reference: patent publication US20090163586A1, “Bis-(Sulfonylamino) Derivatives in Therapy 205” (AstraZeneca AB, priority 2007, published 2009)
